Source: the NIST ThermoML archive (doi:10.1016/j.fluid.2008.06.007)
± gives the expanded uncertainty stated by the source.

Conditions: Liquid, Vibrating tube method

CCCCCO [pentan-1-ol]
mass density [kg/m3]
Conditions	293.15 K	303.15 K	313.15 K	323.15 K	333.15 K	343.15 K
100 kPa	814.7 ± 1	807.3 ± 1	799.8 ± 1.1	792.5 ± 1.1	784.4 ± 1.1	776.5 ± 1.1
10000 kPa	821.1 ± 1	814.4 ± 1.1	807.4 ± 1.1	800.3 ± 1.1	792.7 ± 1.1	785.2 ± 1.1
20000 kPa	827.3 ± 1.1	820.7 ± 1.1	814.1 ± 1.1	807.3 ± 1.1	800.1 ± 1.1	792.9 ± 1.1
30000 kPa	833.2 ± 1.1	826.7 ± 1.1	820.2 ± 1.1	813.7 ± 1.1	806.8 ± 1.1	799.9 ± 1.1
40000 kPa	838.6 ± 1.1	832.2 ± 1.1	826 ± 1.1	819.8 ± 1.1	813.1 ± 1.1	806.6 ± 1.1
50000 kPa	843.6 ± 1.1	837.5 ± 1.1	831.5 ± 1.1	825.4 ± 1.1	818.9 ± 1.1	812.6 ± 1.1
60000 kPa	848.5 ± 1.1	842.4 ± 1.1	836.6 ± 1.1	830.7 ± 1.1	824.4 ± 1.1	818.3 ± 1.1
70000 kPa	853.1 ± 1.1	847 ± 1.1	841.4 ± 1.1	835.7 ± 1.1	829.7 ± 1.2	823.7 ± 1.2
80000 kPa	857.4 ± 1.1	851.6 ± 1.1	846.1 ± 1.2	840.4 ± 1.2	834.6 ± 1.2	828.7 ± 1.2
90000 kPa	861.7 ± 1.2	855.8 ± 1.2	850.5 ± 1.2	845 ± 1.2	839.2 ± 1.2	833.5 ± 1.2
100000 kPa	865.8 ± 1.2	860.1 ± 1.2	854.8 ± 1.2	849.3 ± 1.2	843.7 ± 1.2	838.2 ± 1.2
110000 kPa	869.6 ± 1.2	864.1 ± 1.2	858.9 ± 1.2	853.6 ± 1.2	848 ± 1.2	842.5 ± 1.3
120000 kPa	873.2 ± 1.2	868 ± 1.2	862.8 ± 1.2	857.6 ± 1.2	852.1 ± 1.3	846.8 ± 1.3
130000 kPa	876.9 ± 1.2	871.7 ± 1.2	866.6 ± 1.2	861.5 ± 1.3	856 ± 1.3	850.9 ± 1.3
140000 kPa	880.3 ± 1.2	875.2 ± 1.2	870.2 ± 1.3	865.3 ± 1.3	860 ± 1.3	854.8 ± 1.3
